Columns and labels:
[1] = set-up: species or system dogs; conditions: dog, in vivo
Source text: The results for both IVPs 3 and 4 are consistent with this value.

[2] = cited from earlier work

SMILES | published AUC for benazeprilat scaled to a dose of 0.25 mg/kg [1] [ng/h/mL] | effect of addition of HPβCD on aqueous solubility of pimobendan ([2]; pH between 3 and 5) | solubility at pH 7 ([2]; water, pH 7) [mg per 100 mL] | volume of water in which 1 g of pimobendan dissolves ([2]; water)
CCOC(=O)[C@H](CCc1ccccc1)N[C@H]1CCc2ccccc2N(CC(=O)O)C1=O [benazepril, Benazepril] | 114.9 | – | – | –
COc1ccc(-c2nc3ccc(C4=NNC(=O)CC4C)cc3[nH]2)cc1 (racemic) [pimobendan, (RS)-6-[2-(4-methoxyphenyl)-1H-benzimidazol-5-yl]-5-methyl-4,5-dihydropyridazin-3(2H)-one] | – | does not effectively increase the aqueous solubility | 0.1 | 10,000 mL

— patent publication US10413610B2, “Liquid formulation” (Luoda Pharma Pty Ltd, priority 2012, dated 2019)
